Data taken from patent US5196427A, “3-aryl-4(3H) quinazolinone CCK antagonists and pharmaceutical formulations thereof” (Eli Lilly and Company, priority 1991, dated 1993).

What follows are compounds tested against T1, Brain CCK receptor (Mus musculus, UniProt P56481) (assay: Brain CCK receptor binding (mouse brain membranes, 125I-CCK-8 sulfate)). Settings: mouse brain membranes; 1 μM.
T1 construct: from tissue; host or cells: forebrain membranes of male CF-1 mice
T1 sequence (P56481 1-453): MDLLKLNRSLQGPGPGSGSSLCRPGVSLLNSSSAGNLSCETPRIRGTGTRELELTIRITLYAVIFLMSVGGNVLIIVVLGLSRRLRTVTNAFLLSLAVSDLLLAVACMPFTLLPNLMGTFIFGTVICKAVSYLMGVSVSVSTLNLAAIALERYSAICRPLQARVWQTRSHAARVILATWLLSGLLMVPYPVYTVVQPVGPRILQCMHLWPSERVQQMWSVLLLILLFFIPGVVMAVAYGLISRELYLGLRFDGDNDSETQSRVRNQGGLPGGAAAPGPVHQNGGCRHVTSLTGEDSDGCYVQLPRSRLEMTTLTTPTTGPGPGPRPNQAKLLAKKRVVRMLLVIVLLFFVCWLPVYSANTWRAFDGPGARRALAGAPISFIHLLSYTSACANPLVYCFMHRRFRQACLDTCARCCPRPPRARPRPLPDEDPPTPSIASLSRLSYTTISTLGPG
Experimental: Brain CCK receptor binding was performed using mouse brain membranes according to the method of Chang and Lotti (Proc. Natl. Acad. Sci. 83: 4923-4926, 1986). Male CF-1 mice, 23-25 g were sacrificed by cervical dislocation, the forebrain removed and placed in ice cold 50 mM Tris buffer, pH 7.4. The tissue was homogenized in 100 volumes of the Tris buffer with a Brinkman Polytron or Tekmar Tissumizer and then centrifuged at 40,000 g for 10 min. Pellets were resuspended in Tris buffer, centrifuged as above and then resuspended in 100 volumes of assay buffer, pH 6.5 (20 mM N-2-hydroxyethyl-piperazine-N'-2-ethane sulfonic acid (HEPES), 1 mM ethylene glycol bis(2-aminoethyl ether-N,N,N',N'-tetraaceticacid) (EGTA), 5 mM MgCl2, 130 mM NaCl, and 0.25 mg/ml bacitracin). The binding assay consisted of 50 μL of compound (or buffer for total binding), 50 μL of ^125 I-CCK-8 sulfate (20 pM) (Amersham IM-159), 200 μL of assay buffer and 200 μL of homogenate (80-120 μg protein). The samples were incubated at room temperature (25°) for 2 hours, and they were then filtered through GF/B glass fiber filters (soaked in wash buffer for 2 hours before use) using a 48 well Brandel cell harvester designed for receptor binding. The filters were washed twice with 3 ml of 50 mM Tris buffer, pH 7.4, containing 0.01% BSA and then counted for radioactivity in plastic tubes with a Micromedic 10/600 automatic gamma counter.
Compounds were dissolved in dimethyl sulfoxide (DMSO) at a concentration of 10 mM and then further diluted with assay buffer. […] IC-50 values of displacement curves were determined using 7 concentrations of compound and were calculated using the ALLFIT computer program of DeLean, Munson and Rodbard (Am. J. Physiol. 235: E97-E102, 1978). Non-specific binding was determined as the displacement of the radioligand by 100 nM CCK-8 sulfate.

inhibition at 1 µM [%]	SMILES
90	CC(C)Oc1cccc(-n2c(CCc3c[nH]c4ccc(Br)cc34)nc3ccc(Cl)cc3c2=O)c1 [Example 66]
85	CCCc1cc(-n2c(CCc3c[nH]c4ccc(Br)cc34)nc3ccccc3c2=O)ccc1OC [Example 43]

Same assay, conditions: mouse brain membranes; 10 μM; read-out: Brain % inhibition in binding assay

inhibition at 10 µM [%]	SMILES
35	O=c1c2ccccc2nc(CCc2c[nH]c3ccccc23)n1-c1ccccc1C(F)(F)F [Example 11]

Same assay, conditions: mouse brain membranes; Mean ± SEM, n = 3; values without SEM n = 1; read-out: Brain IC50

SMILES	IC50 [nM]
O=c1c2ccccc2nc(CCc2c[nH]c3ccccc23)n1-c1ccc2c(c1)OCO2 [Example 42]	190 ± 40
COc1cccc(-n2c(CCc3c[nH]c4ccc(C)cc34)nc3ccccc3c2=O)c1 [Example 21]	55 ± 3
Cc1ccc2[nH]cc(CCc3nc4ccccc4c(=O)n3-c3cccc(C(F)(F)F)c3)c2c1 [Example 36]	190
O=c1c2ccccc2nc(CCc2c[nH]c3ccc(Cl)cc23)n1-c1cccc(C(F)(F)F)c1 [Example 35]	230
CCCOc1ccc(-n2c(CCc3c[nH]c4ccc(Br)cc34)nc3ccccc3c2=O)cc1 [Example 54]	1200
COc1cccc(-n2c(CCc3c[nH]c4ccc(Cl)cc34)nc3ccccc3c2=O)c1 [Example 19]	47 ± 3
COc1ccc2[nH]cc(CCc3nc4ccccc4c(=O)n3-c3cccc(C(F)(F)F)c3)c2c1 [Example 37]	130
O=c1c2ccccc2nc(CCc2c[nH]c3ccc(Br)cc23)n1-c1cccc(C(F)(F)F)c1 [Example 34]	230 ± 30
COc1cccc(-n2c(CC(C)c3c[nH]c4ccc(Br)cc34)nc3ccccc3c2=O)c1 (stereo not shown) [Example 63]	100
CCCCOc1ccc(-n2c(CCc3c[nH]c4ccc(Br)cc34)nc3ccccc3c2=O)cc1 [Example 56]	1100
CCCCc1ccc(-n2c(CCc3c[nH]c4ccc(Br)cc34)nc3ccccc3c2=O)cc1 [Example 50]	930
COc1cc(OC)cc(-n2c(CCc3c[nH]c4ccccc34)nc3ccccc3c2=O)c1 [Example 41]	1800
CN(C)c1ccc(-n2c(CCc3c[nH]c4ccc(Cl)cc34)nc3ccccc3c2=O)cc1 [Example 58]	87
CCOc1ccc(-n2c(CCc3c[nH]c4ccc(Br)cc34)nc3ccccc3c2=O)cc1 [Example 53]	88 ± 10

Further lines, results first:

IC50 [nM]	SMILES
26 ± 0.3	CC(C)Oc1cccc(-n2c(CCc3c[nH]c4ccccc34)nc3ccccc3c2=O)c1 [Example 25]
38	CC(C)c1ccc(-n2c(CCc3c[nH]c4ccc(Cl)cc34)nc3ccccc3c2=O)cc1 [Example 49]
46 ± 8	CSc1cccc(-n2c(CCc3c[nH]c4ccc(Br)cc34)nc3ccccc3c2=O)c1 [Example 32]
33 ± 6	CN(C)c1ccc(-n2c(CCc3c[nH]c4ccc(Br)cc34)nc3ccccc3c2=O)cc1 [Example 57]
28 ± 4	CCc1ccc(-n2c(CCc3c[nH]c4ccc(Br)cc34)nc3ccccc3c2=O)cc1 [Example 47]
16 ± 1	CN(C)c1cccc(-n2c(CCc3c[nH]c4ccc(Br)cc34)nc3ccccc3c2=O)c1 [Example 38]
37 ± 10	CSc1ccc(-n2c(CCc3c[nH]c4ccc(Br)cc34)nc3ccccc3c2=O)cc1 [Example 60]
29	COc1ccc(-n2c(CCc3c[nH]c4ccc(Br)cc34)nc3ccccc3c2=O)cc1C [Example 45]
13	CN(C)c1cccc(-n2c(CCc3c[nH]c4ccc(Cl)cc34)nc3ccccc3c2=O)c1 [Example 39]
37 ± 13	CC(C)c1ccc(-n2c(CCc3c[nH]c4ccc(Br)cc34)nc3ccccc3c2=O)cc1 [Example 48]
19 ± 5	CC(C)Oc1cccc(-n2c(CCc3c[nH]c4ccc(Cl)cc34)nc3ccccc3c2=O)c1 [Example 26]

Same assay, conditions: read-out: Brain % inhibition in binding assay, mouse brain membranes; 10 μM

SMILES	inhibition at 10 µM [%]
O=c1c2ccccc2nc(Cc2c[nH]c3ccccc23)n1-c1ccccc1 [Example 2, 2-(3-Indolylmethyl)-3-phenyl-4-(3H)quinazolinone]	36
O=c1c2ccccc2nc(CCc2c[nH]c3ccccc23)n1-c1ccccc1F [Example 8]	75
COc1ccccc1-n1c(CCc2c[nH]c3ccccc23)nc2ccccc2c1=O [Example 10]	74
